Source: PubChem BioAssay AID1963868 (Molecular Pharmacology Branch, DTP, NCI, 2024)

System: KRAS PDC tumor spheroids (HUVEC+MSC), viability
Test: Anticancer human tumor 254851-301-R-J1-PDC patient-derived colon carcinoma cell line growth inhibition [KRAS2]
Conditions: for viability, T/C: stronger effect = lower value
How it was run: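 Combination screen of spheroid viability in tumor-cell co-cultures with endothelial (HUVEC) and mesenchymal stem cell stroma. Each agent was tested in half-log dilutions, topping at clinical Cmax or at 10 microM without a known Cmax.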

[1] = curve of first compound, second compound 0.1 µM
[2] = curve of first compound, second compound 0.316 µM
[3] = curve of first compound, second compound 1 µM
[4] = curve of first compound, second compound 3.16 µM
[5] = curve of first compound, second compound 10 µM
[6] = second compound 0.1 µM, first compound 0.0316 µM
[7] = second compound 0.1 µM, first compound 0.1 µM
[8] = second compound 0.1 µM, first compound 0.316 µM
[9] = second compound 0.1 µM, first compound 1 µM
[10] = second compound 0.1 µM, first compound 3.16 µM
[11] = second compound 0.1 µM, first compound 10 µM
[12] = second compound 0.316 µM, first compound 0.0316 µM
[13] = second compound 0.316 µM, first compound 0.1 µM
[14] = second compound 0.316 µM, first compound 0.316 µM
[15] = second compound 0.316 µM, first compound 1 µM
[16] = second compound 0.316 µM, first compound 3.16 µM
[17] = second compound 0.316 µM, first compound 10 µM
[18] = second compound 1 µM, first compound 0.0316 µM
[19] = second compound 1 µM, first compound 0.1 µM
[20] = second compound 1 µM, first compound 0.316 µM
[21] = second compound 1 µM, first compound 1 µM
[22] = second compound 1 µM, first compound 3.16 µM
[23] = second compound 1 µM, first compound 10 µM
[24] = second compound 3.16 µM, first compound 0.0316 µM
[25] = second compound 3.16 µM, first compound 0.1 µM
[26] = second compound 3.16 µM, first compound 0.316 µM
[27] = second compound 3.16 µM, first compound 1 µM
[28] = second compound 3.16 µM, first compound 3.16 µM
[29] = second compound 3.16 µM, first compound 10 µM
[30] = second compound 10 µM, first compound 0.0316 µM
[31] = second compound 10 µM, first compound 0.1 µM
[32] = second compound 10 µM, first compound 0.316 µM
[33] = second compound 10 µM, first compound 1 µM
[34] = second compound 10 µM, first compound 3.16 µM
[35] = second compound 10 µM, first compound 10 µM
[36] = second compound 0.1 µM, first compound 0.01 µM
[37] = second compound 0.316 µM, first compound 0.01 µM
[38] = second compound 1 µM, first compound 0.01 µM
[39] = second compound 3.16 µM, first compound 0.01 µM
[40] = curve of first compound, second compound 0.0316 µM
[41] = second compound 0.0316 µM, first compound 0.0316 µM
[42] = second compound 0.0316 µM, first compound 0.1 µM
[43] = second compound 0.0316 µM, first compound 0.316 µM
[44] = second compound 0.0316 µM, first compound 1 µM
[45] = second compound 0.0316 µM, first compound 3.16 µM
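Also: spheroids exposed to compounds for seven days before readout.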
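For viability, T/C in this document: 100% = DMSO vehicle control luminescence of the spheroids.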

CC1(C)CCC(CN2CCN(c3ccc(C(=O)NS(=O)(=O)c4ccc(NCC5CCOCC5)c([N+](=O)[O-])c4)c(Oc4cnc5[nH]ccc5c4)c3)CC2)=C(c2ccc(Cl)cc2)C1 + C=CC(=O)N1CCN(c2nc(=O)n(-c3c(C)ccnc3C(C)C)c3nc(-c4c(O)cccc4F)c(F)cc23)C(C)C1
IC50 [1]: > 10000 nM | IC50 [2]: > 10000 nM | IC50 [3]: > 10000 nM | IC50 [4]: > 10000 nM | IC50 [5]: > 10000 nM | viability, T/C [6]: 106% | viability, T/C [7]: 112% | viability, T/C [8]: 98.2% | viability, T/C [9]: 95.4% | viability, T/C [10]: 95.3% | viability, T/C [11]: 73.6% | viability, T/C [12]: 106% | viability, T/C [13]: 115% | viability, T/C [14]: 91.2% | viability, T/C [15]: 95.1% | viability, T/C [16]: 91.3% | viability, T/C [17]: 91.6% | viability, T/C [18]: 114% | viability, T/C [19]: 115% | viability, T/C [20]: 105% | viability, T/C [21]: 104% | viability, T/C [22]: 93.8% | viability, T/C [23]: 74.3% | viability, T/C [24]: 102% | viability, T/C [25]: 119% | viability, T/C [26]: 102% | viability, T/C [27]: 103% | viability, T/C [28]: 92.7% | viability, T/C [29]: 84.9% | viability, T/C [30]: 109% | viability, T/C [31]: 109% | viability, T/C [32]: 97.8% | viability, T/C [33]: 107% | viability, T/C [34]: 93.8% | viability, T/C [35]: 83.7%

Cn1nccc1Nc1nccc(-c2cc3c(s2)C(C)(C)N(CCN2CCOCC2)C3=O)n1
viability, T/C (compound 0.0316 µM): 92.9% [middle of 5 runs] | viability, T/C (compound 0.1 µM): 98.1% [middle of 5 runs] | viability, T/C (compound 0.316 µM): 102% [middle of 5 runs] | viability, T/C (compound 1 µM): 89.6% [middle of 5 runs] | viability, T/C (compound 3.16 µM): 51.9% [middle of 5 runs] | viability, T/C (compound 10 µM): 4.24% [middle of 5 runs] | IC50 (curve of compound): 3.28 µM [middle of 5 runs]

COc1cc(Nc2ncc3c(n2)-c2ccc(Cl)cc2C(c2c(F)cccc2OC)=NC3)ccc1C(=O)O + CNCc1ccccc1-c1csc(C(C)Nc2nc(C)nc3cc(OC)c(OC)cc23)c1
IC50 [1]: 82.8 nM | IC50 [2]: 83.4 nM | IC50 [3]: 87.1 nM | IC50 [4]: < 31.6 nM | IC50 [5]: < 31.6 nM | viability, T/C [6]: 80% | viability, T/C [7]: 40.1% | viability, T/C [8]: 29.3% | viability, T/C [9]: 26.2% | viability, T/C [10]: 18.5% | viability, T/C [11]: 9.63% | viability, T/C [12]: 77.9% | viability, T/C [13]: 39.5% | viability, T/C [14]: 31.1% | viability, T/C [15]: 27% | viability, T/C [16]: 17.7% | viability, T/C [17]: 9.95% | viability, T/C [18]: 82% | viability, T/C [19]: 39.5% | viability, T/C [20]: 32.8% | viability, T/C [21]: 28.6% | viability, T/C [22]: 21.6% | viability, T/C [23]: 9.92% | viability, T/C [24]: 49.5% | viability, T/C [25]: 22.9% | viability, T/C [26]: 20.6% | viability, T/C [27]: 12.5% | viability, T/C [28]: 6.88% | viability, T/C [29]: 4.66% | viability, T/C [30]: 0.15% | viability, T/C [31]: 0.13% | viability, T/C [32]: 0.12% | viability, T/C [33]: 0.1% | viability, T/C [34]: 0.11% | viability, T/C [35]: 0.14%

COC(=O)c1ccc2c(C(=Nc3ccc(N(C)C(=O)CN4CCN(C)CC4)cc3)c3ccccc3)c(O)[nH]c2c1
viability, T/C (compound 0.0316 µM): 104% [middle of 5 runs] | viability, T/C (compound 0.1 µM): 99.1% [middle of 5 runs] | viability, T/C (compound 0.316 µM): 95.2% [middle of 5 runs] | viability, T/C (compound 1 µM): 97.2% [middle of 5 runs] | viability, T/C (compound 3.16 µM): 86.5% [middle of 5 runs] | viability, T/C (compound 10 µM): 95.5% [middle of 5 runs] | IC50 (curve of compound): > 10000 nM

CN(C)C/C=C/C(=O)Nc1cc2c(Nc3ccc(F)c(Cl)c3)ncnc2cc1O[C@H]1CCOC1 + CNCc1ccccc1-c1csc(C(C)Nc2nc(C)nc3cc(OC)c(OC)cc23)c1
IC50 [1]: > 100 nM | IC50 [2]: > 100 nM | IC50 [3]: > 100 nM | IC50 [4]: > 100 nM | IC50 [5]: < 0.316 nM | viability, T/C (second compound 0.1 µM, first compound 0.000316 µM): 99.9% | viability, T/C (second compound 0.1 µM, first compound 0.001 µM): 105% | viability, T/C (second compound 0.1 µM, first compound 0.00316 µM): 96.4% | viability, T/C [36]: 94.7% | viability, T/C [6]: 93.1% | viability, T/C [7]: 72.8% | viability, T/C (second compound 0.316 µM, first compound 0.000316 µM): 104% | viability, T/C (second compound 0.316 µM, first compound 0.001 µM): 98.3% | viability, T/C (second compound 0.316 µM, first compound 0.00316 µM): 90.4% | viability, T/C [37]: 87.9% | viability, T/C [12]: 82.8% | viability, T/C [13]: 72.3% | viability, T/C (second compound 1 µM, first compound 0.000316 µM): 97.1% | viability, T/C (second compound 1 µM, first compound 0.001 µM): 89.2% | viability, T/C (second compound 1 µM, first compound 0.00316 µM): 84.6% | viability, T/C [38]: 82% | viability, T/C [18]: 75.5% | viability, T/C [19]: 79.9% | viability, T/C (second compound 3.16 µM, first compound 0.000316 µM): 84% | viability, T/C (second compound 3.16 µM, first compound 0.001 µM): 82.1% | viability, T/C (second compound 3.16 µM, first compound 0.00316 µM): 81.8% | viability, T/C [39]: 75.1% | viability, T/C [24]: 73.8% | viability, T/C [25]: 62.2% | viability, T/C (second compound 10 µM, first compound 0.000316 µM): 0.17% | viability, T/C (second compound 10 µM, first compound 0.001 µM): 0.18% | viability, T/C (second compound 10 µM, first compound 0.00316 µM): 0.18% | viability, T/C (second compound 10 µM, first compound 0.01 µM): 0.16% | viability, T/C [30]: 0.17% | viability, T/C [31]: 0.21%

CC(C)NCC(C(=O)N1CCN(c2ncnc3c2C(C)CC3O)CC1)c1ccc(Cl)cc1 (centres undefined) + C=CC(=O)N1CCN(c2nc(OCC3CCCN3C)nc3c2CCN(c2cccc4cccc(C)c24)C3)CC1CC#N
IC50 [40]: > 10000 nM | IC50 [1]: > 10000 nM | IC50 [2]: > 10000 nM | IC50 [3]: > 10000 nM | IC50 [4]: 85.7 nM | viability, T/C [41]: 96.9% | viability, T/C [42]: 96.1% | viability, T/C [43]: 87.4% | viability, T/C [44]: 98.2% | viability, T/C [45]: 95.8% | viability, T/C (second compound 0.0316 µM, first compound 10 µM): 94.7% | viability, T/C [6]: 107% | viability, T/C [7]: 101% | viability, T/C [8]: 99.9% | viability, T/C [9]: 77.1% | viability, T/C [10]: 89.9% | viability, T/C [11]: 92.1% | viability, T/C [12]: 97.7% | viability, T/C [13]: 93.9% | viability, T/C [14]: 92% | viability, T/C [15]: 95.9% | viability, T/C [16]: 88.8% | viability, T/C [17]: 87.6% | viability, T/C [18]: 95.4% | viability, T/C [19]: 98.5% | viability, T/C [20]: 91.6% | viability, T/C [21]: 86.3% | viability, T/C [22]: 97.9% | viability, T/C [23]: 86.2% | viability, T/C [24]: 62% | viability, T/C [25]: 48.2% | viability, T/C [26]: 37% | viability, T/C [27]: 18.1% | viability, T/C [28]: 22.6% | viability, T/C [29]: 8.5%

CC1COCCN1c1cc(-c2ccnn2C)c2ccnc(-c3ccn[nH]3)c2n1 (centres undefined) + C=CC(=O)N1CCN(c2nc(OCC3CCCN3C)nc3c2CCN(c2cccc4cccc(C)c24)C3)CC1CC#N
IC50 [40]: 207 nM | IC50 [1]: 300 nM | IC50 [2]: 187 nM | IC50 [3]: 82.6 nM | IC50 [4]: 23.8 nM | viability, T/C (second compound 0.0316 µM, first compound 0.01 µM): 122% | viability, T/C [41]: 88.8% | viability, T/C [42]: 62.7% | viability, T/C [43]: 40.4% | viability, T/C [44]: 32.7% | viability, T/C [45]: 20.4% | viability, T/C [36]: 101% | viability, T/C [6]: 95.3% | viability, T/C [7]: 64.8% | viability, T/C [8]: 50.8% | viability, T/C [9]: 34% | viability, T/C [10]: 21.4% | viability, T/C [37]: 105% | viability, T/C [12]: 97.1% | viability, T/C [13]: 58.8% | viability, T/C [14]: 41.9% | viability, T/C [15]: 32.3% | viability, T/C [16]: 22.5% | viability, T/C [38]: 59.4% | viability, T/C [18]: 53% | viability, T/C [19]: 48.8% | viability, T/C [20]: 26.3% | viability, T/C [21]: 26.5% | viability, T/C [22]: 39.7% | viability, T/C [39]: 57.6% | viability, T/C [24]: 47.1% | viability, T/C [25]: 32.8% | viability, T/C [26]: 23.3% | viability, T/C [27]: 18.8% | viability, T/C [28]: 23.8%
